This note sets out measurements from PubChem BioAssay (NCI).

Values joined by “and” are separate entries in the source; they are usually repeats but may differ in a detail not shown here. Equal entries are not always repeated.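 Interpolation was linear, between the two tested concentrations surrounding the appropriate level; five concentrations were tested over 48 hours in 96-well plates. GI50 is the concentration that inhibits growth by half. TGI: total growth inhibition.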 A value given as a limit tells only on which side of the number the result lay.

Common to all, as to test: growth of human tumour cells (NCI), 48 h
The subject of assay [1] is COLO 205 colon.
The subject of assay [2] is SNB-19 CNS.
Assay [3] concerns IGROV1 ovarian.
The test system of assay [4] is RPMI-8226 leukemia.
The subject of assay [5] is SNB-75 CNS.
Assay [6] has as its system UACC-62 melanoma.
For assay [7], the system named is HCT-116 colon.
For assay [8], the system named is OVCAR-4 ovarian.
In assay [9] the test system is HCT-15 colon.
In assay [10] the test system is PC-3 prostate.

For the compound `CCCCCCCCCCCCOC1C(C(COC2OC(C(O)CN3CCCCC3)C3OC(C)(C)OC23)NC(=O)Nc2ccccc2)OC2OC(C)(C)OC21` (stereo not given), the GI50 in [1] is 3.86 µM; in assay [2], 18.2 µM; in assay [3], 16.9 µM; in assay [4], 5.32 µM; in assay [5] it was 13.6 µM; in [6], 15.9 µM. Moreover, the GI50 is 4.54 µM in [7], 9.48 µM in [8], 8.6 µM in [9] and 10.7 µM in assay [10]. For the same compound, the TGI was 16.8 µM in assay [1]; 44.5 µM in assay [2]; 39.5 µM in assay [3]; 15.3 µM in [4]; 29.8 µM in [5]; 31 µM in assay [6]. Also, the TGI in assay [7] came to 12.7 µM; in assay [8], 27.3 µM; in assay [9] it was 24.3 µM; in [10], 24.9 µM.
`CC1CCC2C(C)C3C(CC4C5CC=C6CC(OC7OC(CO)C(O)C(OC8OC(CO)C(O)C(O)C8O)C7OC7OC(C)C(O)C(O)C7O)CCC6(C)C5CCC43C)N2C1` (stereo not given): the GI50 in [1], in assay [2], in assay [3], in assay [4], in assay [5] and in [6] was more than 2.5 µg/mL each time. Further, the GI50 in assay [7], in assay [8], in assay [9] and in assay [10] was more than 2.5 µg/mL throughout. Also, the TGI is 33 µM and > 2.5 µg/mL in assay [1]; 23.8 µM and > 2.5 µg/mL in [2]; 26.2 µM and > 2.5 µg/mL in [3]; 45.9 µM and > 2.5 µg/mL in assay [4]; 24.7 µM and > 2.5 µg/mL in [5]; 27.7 µM and > 2.5 µg/mL in assay [6]. The TGI is 24.5 µM and > 2.5 µg/mL in [7]; 20.3 µM and > 2.5 µg/mL in assay [8]; 33 µM and > 2.5 µg/mL in assay [9]; 28.5 µM and > 2.5 µg/mL in assay [10].
With `O=C(O)C(Br)C(Br)c1ccccc1[N+](=O)[O-]` (stereo not given), the TGI in assay [1], in assay [2], in [3], in [4], in assay [5] and in [6] was more than 100 µM each time. The TGI in assay [7], in assay [8], in assay [9] and in [10] was more than 100 µM in each case.
As to `O=C(NCCN1CCOCC1)Nc1ccc(-c2cc3c(Nc4ccc(Oc5cccc(C(F)(F)F)c5)c(Cl)c4)ncnc3s2)cc1`, the GI50 was 1.25 µM in [1]; 2.41 µM in assay [2]; 1.64 µM in [3]; 1.4 µM in [4]; 0.642 µM in assay [5]; 1 µM in [6]. Further, the GI50 in [7] was 1.49 µM; in assay [8] it was 3.26 µM; in assay [9] it was 0.95 µM; in assay [10], 1.41 µM. Moreover, the TGI in [1] was found to be 2.95 µM; in assay [2], 8.52 µM; in [3] it was 6.85 µM; in assay [4] it was 3.54 µM; in [5] it was 1.9 µM; in assay [6] it was 2.27 µM. Moreover, the TGI in assay [7] turned out to be 5.05 µM; in assay [8] it was 11.5 µM; in assay [9] it was 1.92 µM; in assay [10], 5.6 µM.
As to `Oc1ccc(Br)cc1/C=N/NC(=S)NC12CC3CC(CC(C3)C1)C2`, the GI50 in assay [1] was 3.44 µM; in assay [2], 2.87 µM; in assay [3], 1.81 µM; in [4], 2.07 µM; in assay [5], 2.03 µM; in assay [6], 2.37 µM. Further, the GI50 in assay [7] was 1.57 µM; in [8] it was 1.25 µM; in assay [9], 0.734 µM; in assay [10], 1.64 µM. Further, the TGI in assay [1] is 11.1 µM; in [2] it was 12.4 µM; in assay [3], 5.89 µM; in [4], 5.8 µM; in assay [5], 7.15 µM; in [6] it was 7.83 µM. For the same compound, the TGI is 4.57 µM in [7], 4.09 µM in assay [8], 3.49 µM in assay [9] and 4.94 µM in assay [10].
As to `CCCCSCc1nc2nc(Cl)c(Cl)nc2[nH]1`, the TGI in [1] is 37 µM; in [2] it was more than 100 µM; in [3] it was more than 100 µM; in [4] it was 38.2 µM; in assay [5], 57.5 µM; in assay [6], 29.5 µM. For the same compound, the TGI in assay [7] is 40.6 µM; in assay [8], more than 100 µM; in assay [9], 85.5 µM; in assay [10], more than 100 µM.
Consider `CCOC(=O)N1C/C(=C/c2ccc(OC)cc2)C(=O)/C(=C/c2ccc(OC)cc2)C1`, for which the GI50 in assay [1] is 2.18 µM; in [2] it was 3.87 µM; in [3], 2.44 µM; in assay [4], 0.211 µM; in [5], 2.93 µM; in assay [6], 1.92 µM. Moreover, the GI50 in assay [7] was 0.21 µM; in assay [8], 2.77 µM; in [9], 1.64 µM; in assay [10], 2.53 µM. Also, the TGI in assay [1] was 5.28 µM; in assay [2], more than 35 µM; in assay [3], more than 21.2 µM; in assay [4] it was 1.6 µM; in assay [5], 31.1 µM; in [6], 5.4 µM. In addition, the TGI in assay [7] is 0.579 µM; in assay [8] it was more than 31 µM; in [9], 4.91 µM; in assay [10] it was 8.61 µM.
With `CCOC(=O)c1c(C)n(CC(C)C)c2c1cc1oc(=O)c(=O)n3cnc2c13`, the GI50 in assay [1] is 20.7 µM; in [2], 36.2 µM; in [3], 15.1 µM; in assay [4], 15.8 µM; in [5] it was 12.5 µM; in [6] it was 9.44 µM. For the same compound, the GI50 in assay [7] was 14.8 µM; in [8], 17.4 µM; in assay [9], 15.2 µM; in [10], 24.6 µM. Further, the TGI in assay [1] was more than 50 µM; in assay [2], more than 50 µM; in assay [3], more than 50 µM; in [4], 37.2 µM; in assay [5], more than 50 µM; in [6], 21.6 µM. Besides, the TGI in assay [7], in [8], in assay [9] and in assay [10] was more than 50 µM each time.
